Results taken from patent US12637687B2, “Nucleic acid molecules, polypeptides having epoxy group-removing catalytic activity and use thereof” (SHANDONG AGRICULTURAL UNIVERSITY, priority 2020, dated 2026).

B1: ThFhb7: de-epoxidase from Thinopyrum ponticum; polypeptide having epoxy group-removing catalytic activity, amino acid sequence SEQ ID NO: 36, gene SEQ ID NO: 1 (protein, listed as Elytrigia ponticum)
chain: MATSASTSTPIIPTAIAGAPPVAGTCCAVAPTLSALALAPLAVPTTTTTVLMPAISSVAASLAVPACALPAAGSAPATLPIIHAPATASLVGASPAIAATLGATTPASGAGALPPPGLLATAVGAAMPGLLIPLSGIAASPGLAATAAPASAVAAAPTAHVGLMVHGLPLAPATAAVTLAGPVAAAGLSSTAALGMVGGAAALMMGSLAAMLGALAALPALAASGPPLLGGAATTAAMIVGGTLAMMAATLPVSGTGGAAACHGAIPGGLHAALALTAGVL

Key:
Settings in all cases: in vivo
ThFhb7 = system: ThFhb7; design: species or system Thinopyrum ponticum
F. graminearum [1] = system: F. graminearum
F. graminearum [2] = system: F. graminearum; remark: listed apart in the source
F. graminearum [3] = system: F. graminearum; remark: listed apart in the source

Molecule	conversion into glutathione adducts in transgenic wheat overexpressing ThFhb7 (ThFhb7)	number of diseased spikelets vs control receptor material (F. graminearum [1])	diseased spot area on leaves vs KN199 (F. graminearum [2])	disease spot area of ex-vivo leaves vs receptor material (F. graminearum [3])
CC(=O)O[C@@H]1C[C@]2(C)[C@@]3(CO)[C@H](O)C(=O)C(C)=C[C@H]3O[C@H]1[C@@]21CO1 [3-ADON, 3-acetyl-deoxynivalenol]	efficiently catalyzed into glutathione adducts	–	–	–
CC(=O)OC[C@]12[C@H](O)C(=O)C(C)=C[C@H]1O[C@@H]1[C@H](O)C[C@@]2(C)[C@]12CO2 [15-ADON, 15-acetyl-deoxynivalenol]	efficiently catalyzed into glutathione adducts	–	–	–
CC1=C[C@H]2O[C@@H]3[C@H](O)C[C@](C)([C@@]2(CO)[C@H](O)C1=O)[C@]31CO1 [DON, deoxynivalenol]	efficiently catalyzed into glutathione adducts	–	–	–
CC1=C[C@H]2O[C@@H]3[C@H](O)[C@@H](O)[C@](C)([C@@]2(CO)[C@H](O)C1=O)[C@]31CO1 [NIV, nivalenol]	efficiently catalyzed into glutathione adducts	–	–	–
B1	–	significantly less	significantly reduced	significantly reduced
